# Laboratory results as given in ChEMBL document CHEMBL5226311, “Recent Progress on Tubulin Inhibitors with Dual Targeting Capabilities for Cancer Therapy” (J Med Chem, 2021).
# What was measured:
# DLD-1 = assay: Antiproliferative activity against MTAs-resistant human DLD-1 cells overexpressing P-gp assessed as cell growth inhibition; format: functional, cell-based
# NCI-H460 [1] = assay: Antitumor activity against human NCI-H460 cells expressing TaxR xenografted in mouse assessed as inhibition of tumor growth at 30 mg/kg relative to control; format: functional; conditions: read-out: TGI
# NCI-H460 [2] = assay: Antiproliferative activity against human NCI-H460 cells assessed as cell growth inhibition; format: functional, cell-based
# NCI-H460 [3] = assay: Antitumor activity against human NCI-H460 cells xenografted in mouse assessed as inhibition of tumor growth at 30 mg/kg relative to control; format: functional; conditions: read-out: TGI
# NCI-H460 [4] = assay: Antiproliferative activity against human NCI-H460 cells expressing TaxR assessed as cell growth inhibition; format: functional, cell-based
# Tubulin = assay: Inhibition of tubulin polymerization (unknown origin); format: protein-complex assay, Homo sapiens
# KM12 = assay: Antiproliferative activity against human KM12 cells assessed as cell growth inhibition; format: functional
# SF-539 = assay: Antiproliferative activity against human SF-539 cells assessed as cell growth inhibition; format: functional
# RXF 393 = assay: Antiproliferative activity against human RXF 393 cells assessed as cell growth inhibition; format: functional
# NCI-H322M = assay: Antiproliferative activity against human NCI-H322M cells assessed as cell growth inhibition; format: functional
# OVCAR-3 = assay: Antiproliferative activity against human OVCAR-3 cells assessed as cell growth inhibition; format: functional
# Hs-578T = assay: Antiproliferative activity against human Hs-578T cells assessed as cell growth inhibition; format: functional
# SNB-75 = assay: Antiproliferative activity against human SNB-75 cells assessed as cell growth inhibition; format: functional
# MDA-MB-435 = assay: Antiproliferative activity against human MDA-MB-435 cells assessed as cell growth inhibition; format: functional
# NCI-H522 = assay: Antiproliferative activity against human NCI-H522 cells assessed as cell growth inhibition; format: functional
# SW-620 = assay: Antiproliferative activity against human SW-620 cells assessed as cell growth inhibition; format: functional
# HCT-15 = assay: Antiproliferative activity against human HCT-15 cells assessed as cell growth inhibition; format: functional
# LOX IMVI = assay: Antiproliferative activity against human LOX IMVI cells assessed as cell growth inhibition; format: functional
# K562 = assay: Antiproliferative activity against human K562 cells assessed as cell growth inhibition; format: functional
# BT-549 = assay: Antiproliferative activity against human BT-549 cells assessed as cell growth inhibition; format: functional
# A549 = assay: Antiproliferative activity against human A549 cells assessed as cell growth inhibition; format: functional, cell-based
# PC-3 = assay: Antiproliferative activity against human PC-3 cells assessed as cell growth inhibition; format: functional
# OVCAR-8 = assay: Antiproliferative activity against human OVCAR-8 cells assessed as cell growth inhibition; format: functional
# M14 = assay: Antiproliferative activity against human M14 cells assessed as cell growth inhibition; format: functional
# SF-295 = assay: Antiproliferative activity against human SF-295 cells assessed as cell growth inhibition; format: functional
# CCRF-CEM = assay: Antiproliferative activity against human CCRF-CEM cells assessed as cell growth inhibition; format: functional
# A498 = assay: Antiproliferative activity against human A498 cells assessed as cell growth inhibition; format: functional
# DU-145 = assay: Antiproliferative activity against human DU-145 cells assessed as cell growth inhibition; format: functional
# NCI/ADR-RES = assay: Antiproliferative activity against human NCI/ADR-RES cells assessed as cell growth inhibition; format: functional
# SN12C = assay: Antiproliferative activity against human SN12C cells assessed as cell growth inhibition; format: functional
# HL-60(TB) = assay: Antiproliferative activity against human HL-60(TB) cells assessed as cell growth inhibition; format: functional
# MCF7 = assay: Antiproliferative activity against human MCF7 cells assessed as cell growth inhibition; format: functional, cell-based
# HL60/MX2 = assay: Antiproliferative activity against human HL60/MX2 cells assessed as cell growth inhibition; format: functional, cell-based
# [5] = Antiproliferative activity against human KB/VCR cells assessed as cell growth inhibition; format: functional, cell-based
# MES-SA/Dx5 = assay: Antiproliferative activity against human MES-SA/Dx5 cells assessed as cell growth inhibition; format: functional, cell-based
# KB [6] = assay: Antiproliferative activity against human KB cells assessed as cell growth inhibition; format: functional, cell-based
# KB [7] = assay: Antiproliferative activity against vincristine-resistant human KB cells assessed as cell growth inhibition; format: functional, cell-based
# KB [8] = assay: Antiproliferative activity against etoposide-resistant human KB cells assessed as cell growth inhibition; format: functional, cell-based
# U-251 = assay: Antiproliferative activity against human U-251 cells assessed as cell growth inhibition; format: functional, cell-based
# A 172 = assay: Antiproliferative activity against human A-172 cells assessed as cell growth inhibition; format: functional, cell-based
# [9] = Antiproliferative activity against human U87 cells assessed as cell growth inhibition; format: functional, cell-based, U-87MG ATCC; conditions: U-87 MG
# [10] = Antiproliferative activity against human U87MG Human EGFR vIII cells assessed as cell growth inhibition; format: functional, cell-based
smiles,measurement,setting,value
CCCCC(C#CC(=O)OC)O/C=C/C(=O)OC (stereo not given),IC50,DLD-1,450 nM
CN(C)c1ccc(/C=C2/SC(=Nc3ccccc3Cl)NC2=O)cc1,inhibition in vivo at 30 mg/kg,NCI-H460 [1],60.4%
same,IC50,NCI-H460 [2],700 nM
same,inhibition in vivo at 30 mg/kg,NCI-H460 [3],62.4%
same,IC50,NCI-H460 [4],800 nM
COc1ccc(C(=O)c2cc(C)c(OC)c(C)c2)cc1OC(=O)CCl,IC50,Tubulin,1300 nM
same,GI50,KM12,< 10 nM
same,GI50,SF-539,< 10 nM
same,GI50,RXF 393,< 10 nM
same,GI50,NCI-H322M,< 10 nM
same,GI50,OVCAR-3,< 10 nM
same,GI50,Hs-578T,< 10 nM
same,GI50,SNB-75,< 10 nM
same,GI50,MDA-MB-435,< 10 nM
same,GI50,NCI-H522,< 10 nM
same,GI50,SW-620,< 10 nM
same,GI50,HCT-15,< 10 nM
same,GI50,LOX IMVI,< 10 nM
same,GI50,K562,< 10 nM
same,GI50,BT-549,< 10 nM
same,GI50,A549,< 10 nM
same,GI50,PC-3,< 10 nM
same,GI50,OVCAR-8,< 10 nM
same,GI50,M14,< 10 nM
same,GI50,SF-295,< 10 nM
same,GI50,CCRF-CEM,< 10 nM
same,GI50,A498,< 10 nM
same,GI50,DU-145,< 10 nM
same,GI50,NCI/ADR-RES,< 10 nM
same,GI50,SN12C,< 10 nM
same,GI50,HL-60(TB),< 10 nM
same,GI50,MCF7,< 10 nM
COc1ccc(O)c(C(=O)c2cnc3[nH]c4ccccc4c3c2)c1,IC50,HL60/MX2,320 nM
same,IC50,[5],400 nM
same,IC50,MES-SA/Dx5,160 nM
COc1ccc(S(=O)(=O)Nc2ccccc2NCc2ccc(C(=O)Nc3ccccc3N)cc2)cc1,IC50,KB [6],12 nM
same,IC50,KB [7],12 nM
same,IC50,KB [8],22 nM
O=C(CCCc1ccc(-c2ccccc2F)cc1)Nc1ccc(O)cc1,EC50,U-251,600 nM
same,EC50,A 172,600 nM
same,EC50,[9],600 nM
same,EC50,[10],600 nM
COc1ccn2c(C(C)=O)cc(C(=O)c3ccc4c(c3)Sc3ccccc3N4)c2c1,GI50,MDA-MB-435,19 nM
COC(=O)NCCc1c(C(=O)c2ccccc2[N+](=O)[O-])[nH]c2ccccc12,IC50,A549,740 nM
same,IC50,MCF7,1590 nM
